Reference: patent US20070054266A1, “Chemical sensor system” (NATIONAL INSTITUTE of ADVANCED INDUSTRIAL SCIENCE and …, priority 2002, published 2007)

Tests used:
[1] = system: olfactory receptor car-b85; assay: Odor response of olfactory cell expressing olfactory receptor car-b85 (fura-2 calcium fluorescence); type: cell-based, mouse; settings: car-b85, odor quality Mint; for Response at 10 μM: responders at 10 μM; for Response at 1 μM: responders at 1 μM with rank order
Source text: It is reported that, in mice, the olfactory receptor is expressed is olfactory cells and detects and identifies odor molecules (Cell 96: 713-723 (1999) and the like). It is reported that there are four zones indicated by No. 1 to 4 in order from the dorsum to the ventral olfactory epithelium wherein olfactory cells are distributed and each olfactory receptor is limitedly expressed in any one of the four zones (Science 286 (5440): 706-711 (1999) and the like). As it is estimated by gene analysis estimates that there are about 1,000 types of olfactory receptors, the responsiveness to specific odor molecules of the olfactory cells sampled in statistically significant number from the four zones is equivalent. Therefore, in the present invention, the responsiveness of 2,740 olfactory cells, about 2.7 times as many as 1,000 specific types of cells, was investigated. It cannot be declared that the statistical significance is maintained for all zones, as the number of types of olfactory receptor included in each zone is not clear. […] Respectively, 2, 2, 1 and 1 type(s) of genes identified by RT-PCR determined from a single cell among such olfactory cells were found and described in the present invention. The olfactory epithelium was quickly excised from a mouse euthanized by decapitation under anesthesia and divided into small pieces. These pieces were trypsinized to cleave intercellular junctions, and a sample of viable multiple mouse olfactory cells isolated from cells adhered to a cover slip by softly putting the treated pieces onto the cover slip taking care not to rupture them. Calcium-sensitive fluorescent dye fura-2 was intracellularly loaded on the sample, a solution of each odor molecule was administered, and the transient increase in intracellular calcium concentration triggered by the olfactory cells responding was detected by measuring and analysing the change in fura-2 fluorescence intensity within the cell using a microscope (Nikon), high-sensitive SIT video camera and image analysis device Argus-50 (Hamamatsu Photonics for both of the latter two), allowing the analysis individual cells response to specific odor molecules. […] The olfactory receptors with high sensitivity to specific odor qualities are shown as follows.

olfactory receptor C257 = assay: Response characteristics of olfactory receptor C257 expressed in cultured cell CHO; type: cell-based; settings: sensitivity one order of magnitude lower than in olfactory receptor cell (FIG. 16)
Source text: Next, in this Example, response characteristics of olfactory receptor C257 were studied. A) is the case wherein it is expressed in olfactory receptor cell, and B) is the case wherein it is expressed in cell established and cultured cell CHO. […] However, response to sCa was not apparent (FIG. 16). […] Regarding discrimination, characteristics of the olfactory receptor can be considered to be expressed, independent of the cell type. However, regarding sensitivity and response starting time, they are change with regards to all odor molecules depending on the cell type. Therefore, it is necessary to evaluate the stimulation quality, paying attention to this point.

olfactory cells = assay: Responsiveness of 2,740 isolated olfactory cells to odor molecules (fura-2 calcium fluorescence); type: cell-based, mouse; settings: for number of olfactory cells responding, with the highest sensitivity and to the same extent, to both R(−)carvone and S(+)carvone / number of olfactory cells sensitively and selectively responding / number of olfactory cells responding, with higher sensitivity than others and to the same extent, to both pulegone and (−)menthone: of 2,740 olfactory cells investigated
Source text: (§1) It is reported that, in mice, the olfactory receptor is expressed is olfactory cells and detects and identifies odor molecules (Cell 96: 713-723 (1999) and the like). It is reported that there are four zones indicated by No. 1 to 4 in order from the dorsum to the ventral olfactory epithelium wherein olfactory cells are distributed and each olfactory receptor is limitedly expressed in any one of the four zones (Science 286 (5440): 706-711 (1999) and the like). As it is estimated by gene analysis estimates that there are about 1,000 types of olfactory receptors, the responsiveness to specific odor molecules of the olfactory cells sampled in statistically significant number from the four zones is equivalent. Therefore, in the present invention, the responsiveness of 2,740 olfactory cells, about 2.7 times as many as 1,000 specific types of cells, was investigated. It cannot be declared that the statistical significance is maintained for all zones, as the number of types of olfactory receptor included in each zone is not clear. […] As a result, 4 olfactory cells sensitively and selectively responding to R(−)carvone of spearmint odor of a typical olfactory source, 18 olfactory cells sensitively and selectively responding to S(+)carvone of caraway odor of another typical olfactory source, 3 olfactory cells responding, with higher sensitivity than others and to the same extent, to both pulegone and (−)menthone commonly having mint odor of another typical olfactory source, and 3 olfactory cells responding, with the highest sensitivity and to the same extent, to both R(−)carvone and S(+)carvone commonly having sweet odor of another typical olfactory source were found. Respectively, 2, 2, 1 and 1 type(s) of genes identified by RT-PCR determined from a single cell among such olfactory cells were found and described in the present invention.
The olfactory epithelium was quickly excised from a mouse euthanized by decapitation under anesthesia and divided into small pieces. These pieces were trypsinized to cleave intercellular junctions, and a sample of viable multiple mouse olfactory cells isolated from cells adhered to a cover slip by softly putting the treated pieces onto the cover slip taking care not to rupture them. Calcium-sensitive fluorescent dye fura-2 was intracellularly loaded on the sample, a solution of each odor molecule was administered, and the transient increase in intracellular calcium concentration triggered by the olfactory cells responding was detected by measuring and analysing the change in fura-2 fluorescence intensity within the cell using a microscope (Nikon), high-sensitive SIT video camera and image analysis device Argus-50 (Hamamatsu Photonics for both of the latter two), allowing the analysis individual cells response to specific odor molecules. Olfactory cell with a confirmed response were individually sampled with a micropipette containing 4 μl of cell lysis mix (1×MMLV buffer (GIBCO BRL), 0.5% NP-40, 290 U/ml RNA guard (Pharmacia), 300 U/ml Prime RNase inhibitor (Eppendorf), 10 μM each dNTP, 200 ng/ml pd(T)25-30) under microscopy and moved into a tube for PCR. After the tube was incubated at 65° C. for 1 minute, 0.5 μl of RT mixed solution containing 50 U of MMLV reverse transcriptase (GIBCO BRL) and 0.5 U of AMV reverse transcriptase (GIBCO BRL) was added to each tube, followed by reverse-transcription at 37° C. for 30 minutes and treatment at 65° C. for 10 minutes prior to the termination of reaction. To form polyA tails, 5 μl of 2×TdT buffer (GIBCO BRL), 1.5 mM DATP, and 3 U/μl Terminal deoxynucleotidyl transferase (GIBCO BRL) were added, followed by incubation at 37° C. for 15 minutes and treatment at 65° C. for 10 minutes prior to the termination of reaction. […]

[2] = system: olfactory receptor car-c5; assay: Odor response of olfactory cell expressing olfactory receptor car-c5 (fura-2 calcium fluorescence); type: cell-based, mouse; settings: car-c5, odor quality Spearmint; for Response at 10 μM: responders at 10 μM
Source text: (§2) It is reported that, in mice, the olfactory receptor is expressed is olfactory cells and detects and identifies odor molecules (Cell 96: 713-723 (1999) and the like). It is reported that there are four zones indicated by No. 1 to 4 in order from the dorsum to the ventral olfactory epithelium wherein olfactory cells are distributed and each olfactory receptor is limitedly expressed in any one of the four zones (Science 286 (5440): 706-711 (1999) and the like). As it is estimated by gene analysis estimates that there are about 1,000 types of olfactory receptors, the responsiveness to specific odor molecules of the olfactory cells sampled in statistically significant number from the four zones is equivalent. Therefore, in the present invention, the responsiveness of 2,740 olfactory cells, about 2.7 times as many as 1,000 specific types of cells, was investigated. It cannot be declared that the statistical significance is maintained for all zones, as the number of types of olfactory receptor included in each zone is not clear. […] Respectively, 2, 2, 1 and 1 type(s) of genes identified by RT-PCR determined from a single cell among such olfactory cells were found and described in the present invention.
(§3) The olfactory epithelium was quickly excised from a mouse euthanized by decapitation under anesthesia and divided into small pieces. […] Calcium-sensitive fluorescent dye fura-2 was intracellularly loaded on the sample, a solution of each odor molecule was administered, and the transient increase in intracellular calcium concentration triggered by the olfactory cells responding was detected by measuring and analysing the change in fura-2 fluorescence intensity within the cell using a microscope (Nikon), high-sensitive SIT video camera and image analysis device Argus-50 (Hamamatsu Photonics for both of the latter two), allowing the analysis individual cells response to specific odor molecules. […]

[3] = system: olfactory receptor car-n272; assay: Odor response of olfactory cell expressing olfactory receptor car-n272 (fura-2 calcium fluorescence); type: cell-based, mouse; settings: car-n272, odor quality Spearmint; for Response at 10 μM: odor molecules listed are those giving a response at 10 μM
Source text: as §2, §3

[4] = system: olfactory receptor car-n266; assay: Odor response of olfactory cell expressing olfactory receptor car-n266 (fura-2 calcium fluorescence); type: cell-based, mouse; settings: car-n266, Sweet odor; for Response at 1 μM: responders at 1 μM; for Response at 10 μM: responders at 10 μM
Source text: as §1, §3

[5] = system: olfactory receptor car-b153; assay: Odor response of olfactory cell expressing olfactory receptor car-b153 (fura-2 calcium fluorescence); type: cell-based, mouse; settings: car-b153, odor quality Caraway; responders at 10 μM
Source text: (§4) It is reported that, in mice, the olfactory receptor is expressed is olfactory cells and detects and identifies odor molecules (Cell 96: 713-723 (1999) and the like). It is reported that there are four zones indicated by No. 1 to 4 in order from the dorsum to the ventral olfactory epithelium wherein olfactory cells are distributed and each olfactory receptor is limitedly expressed in any one of the four zones (Science 286 (5440): 706-711 (1999) and the like). […] Respectively, 2, 2, 1 and 1 type(s) of genes identified by RT-PCR determined from a single cell among such olfactory cells were found and described in the present invention.
as §3

[6] = system: olfactory receptor car-b161; assay: Odor response of olfactory cell expressing olfactory receptor car-b161 (fura-2 calcium fluorescence); type: cell-based, mouse; settings: car-b161, odor quality Caraway; responders at 10 μM
Source text: as §4, §3

[7] = 1 μM, cells selective for the respective carvone (FIG. 8)
[8] = of about 70-100 kinds of receptors

SMILES | Response at 10 μM [1] | response of olfactory receptor C257 when expressed in CHO (olfactory receptor C257) | Response at 1 μM [1] | number of selective cells responding at 1 μM (olfactory cells; [7]) | number of olfactory cells responding, with the highest sensitivity and to the same extent, to both R(−)carvone and S(+)carvone (olfactory cells) | number of olfactory cells sensitively and selectively responding (olfactory cells) | fraction of the carvone-identifying olfactory receptors responding with relatively high sensitivity (olfactory cells; [8]) | Response at 10 μM [2] | Response at 10 μM [3] | Response at 1 μM [4] | Response at 10 μM [4] | number of olfactory cells responding, with higher sensitivity than others and to the same extent, to both pulegone and (−)menthone (olfactory cells) | further results
C=C(C)C1CCC(C)CC1O (stereo not drawn) [ip, 2-isopropenyl-5-methylcyclohexanol] | ip | – | – | – | – | – | – | – | – | – | – | – | –
C=C(C)[C@@H]1CC=C(C)C(=O)C1 [rCa, R(−)-5-isopropenyl-2-methyl-2-cyclohexenon] | rCa | high sensitivity could be confirmed | pu, mn > sCa, rCa | four | 3 olfactory cells | 4 olfactory cells | about ⅕ | rCa | rCa | rCa | rCa | – | Response at 1 μM ([2]; responders at 1 μM): rCa; Response at 1 μM ([3]; odor molecules listed are those giving a response at 1 μM): rCa
C=C(C)C1CC=C(C)C(=O)C1 (stereo not drawn) [carvone] | – | – | – | – | – | – | – | – | – | – | – | – | number of cells responding equally to both carvones at 1 μM (olfactory cells; 1 μM): three; kinds of olfactory receptors functioning to identify carvone (olfactory cells; corresponding to about 9.6% of about 1,000 kinds): 70-100 kinds; olfactory cells responding to carvone, share of the total (olfactory cells; of 2,740 olfactory cells): 9.6%; number of olfactory cells responding to carvone (olfactory cells; of 2,740 olfactory cells, carvone = both S(+)carvone and R(−)carvone): 263; fraction of the carvone-identifying olfactory receptors responding to both carvones equally with relatively high sensitivity (olfactory cells; [8]): about ⅖
CC(C)=C1CC[C@@H](C)CC1=O [pu, (R)-p-menth-4(8)-en-3-one] | pu | – | pu, mn > sCa, rCa | – | – | – | – | – | – | – | – | 3 olfactory cells | –
C=C(C)[C@H]1CC=C(C)C(=O)C1 [sCa, S(+)-5-isopropenyl-2-methyl-2-cyclohexenon] | sCa | not apparent | pu, mn > sCa, rCa | two | 3 olfactory cells | 18 olfactory cells | about ⅕ | sCa | sCa | sCa | sCa | – | Response at 10 μM [5]: sCa; number of selective cells responding at 10 μM (olfactory cells; 10 μM, cells selective for the respective carvone (FIG. 8)): seventeen; Response at 10 μM [6]: sCa
CC(C)[C@@H]1CC[C@@H](C)CC1=O [mn, (2S,5R)-2-isopropyl-5-methylcyclohexanone] | mn | – | pu, mn > sCa, rCa | – | – | – | – | – | – | – | – | 3 olfactory cells | –
